Laboratory results: paper PMC12016938, “A small molecule PKCε inhibitor reduces hyperalgesia induced by paclitaxel or opioid withdrawal” (JCI Insight, 2025)
“And” between values parts separate entries of the source, which are not always exact repeats. Equal entries are not always repeated. Structures can show the parent of a compound that is named as a salt.

System: self-administration (addictive potential)
Assay: I.v. self-administration of CP612, between-session progressive ratio and demand curve
Protocol: We tested the addictive potential of CP612 by examining the extent to which rats are willing to work to obtain CP612. Rats were initially trained to self-administer either saline, morphine (500 μg/kg/i.v. infusion), or 1 of 3 different doses of CP612 (75, 150, or 300 μg/kg/i.v. infusion) for 4 days at fixed ratio 1 (FR1, where 1 nose poke delivers 1 infusion).
During the second phase, the ratio to obtain an infusion increased geometrically every other day (FR1, FR3, FR6, FR12, FR24, FR48, and FR96).
Data (number of self-infusions) were also fitted in an economic-demand curve, which provides an estimate of the motivation to obtain drugs and their addictive potential ([20]). We measured elasticity (α), which is the relative change in consumption as a function of price (i.e., ratio of nose pokes required to obtain an infusion). Behavior is considered “inelastic” when consumption is insensitive to price and “elastic” when consumption is sensitive to price. We also measured Pmax, which is the price at which intake switches from inelastic to elastic. […] (Figure 8B).
Rats not immediately anesthetized were eliminated from the study.
Following this initial acquisition phase at FR1, the ratio to obtain the drug was increased geometrically every other day: FR3 (3 nose pokes are required to obtain 1 infusion of morphine), FR6, FR12, FR24, FR48, and FR96. This allows for analysis of drug consumption as a function of “price” using demand curves for behavioral economics, which can estimate the motivation to obtain drugs and their “addictive potential” ([20]). For this, data from each rat were fitted to the equation log Q = log Q0 + k (e ^–α(Q0 ^C) – 1), where Q represents consumption (number of self-infusions), and Q0 represents the level of consumption at the lowest price. C represents price for the drug (i.e., the ratio), and k is set to a constant accounting for the estimated range of consumption in logarithmic units (k = 4 in these studies). The symbol α is the relative change in consumption across changes in price (ratio). Behavior is considered “inelastic” when consumption is insensitive to price (i.e., the curve is flat, and consumption is maintained despite increases in price), and it switches to “elastic” when consumption is sensitive to price (i.e., when the curve is steep and consumption declines with increases in price). […] We also compared groups for their average intake in the consumption-price curves by measuring α (elasticity) and Pmax.

[1] = individual rat values, drug self-administered

## CN1CC[C@]23c4c5ccc(O)c4O[C@H]2[C@@H](O)C=C[C@H]3[C@H]1C5 [Morphine, Morphine sulfate, reference compound]
FR1 to FR96, CP612 75, 150, 300 or morphine 500 μg/kg/i.v. infusion
  Responding in the active hole when the ratio to obtain an infusion increased: increased responding
FR1 to FR96, compared with saline
  Number of self-infusions when the ratio to obtain an infusion increased: did not significantly decrease
[1]
  D1 AH (FR1): 7 and 9 and 15
  D1 AH (FR3): 23 and 18 and 20
  D1 AH (FR6): 51 and 24 and 47
  D1 AH (FR12): 97 and 70 and 72
  D1 AH (FR24): 143 and 139 and 168
  D1 AH (FR48): 113 and 164 and 127
  D1 AH (FR96): 127 and 137 and 133
  D1 IH (FR1): 1 and 12 and 2
  D1 IH (FR3): 9 and 12 and 5
  D1 IH (FR6): 0 and 9 and 7
  D1 IH (FR12): 2 and 15 and 20
  D1 IH (FR24): 7 and 9 and 20
  D1 IH (FR48): 13 and 28
  D1 IH (FR96): 7 and 33
  D1 Inf (FR1): 6 and 7 and 10
  D1 Inf (FR3): 7 and 5 and 6
  D1 Inf (FR6): 8 and 4 and 7
  D1 Inf (FR12): 8 and 5 and 6
  D1 Inf (FR24): 5 and 6
  D1 Inf (FR48): 2 and 3
  D1 Inf (FR96): 1
  D1 Latency (FR1): 1.5 and 1.4 and 2.3
  D1 Latency (FR3): 0.38 and 0.7 and 0.267
  D1 Latency (FR6): 0.2 and 0.317 and 0.6
  D1 Latency (FR12): 1.6 and 0.6 and 1.7
  D1 Latency (FR24): 1.3 and 0.5 and 0.26
  D1 Latency (FR48): 0.367 and 0.26 and 1.1
  D1 Latency (FR96): 1.0 and 1.1 and 0.7
  D2 AH (FR1): 5 and 7 and 12
  D2 AH (FR3): 25 and 23 and 26
  D2 AH (FR6): 59 and 60 and 46
  D2 AH (FR12): 118 and 94 and 104
  D2 AH (FR24): 143 and 151 and 176
  D2 AH (FR48): 163 and 134 and 158
  D2 AH (FR96): 106 and 145 and 179
  D2 IH (FR1): 8 and 6 and 2
  D2 IH (FR3): 1 and 11 and 13
  D2 IH (FR6): 9 and 8
  D2 IH (FR12): 8 and 7
  D2 IH (FR24): 11 and 7 and 20
  D2 IH (FR48): 19 and 11
  D2 IH (FR96): 6 and 16
  D2 Inf (FR1): 5 and 6 and 9
  D2 Inf (FR3): 8 and 6
  D2 Inf (FR6): 8 and 9 and 7
  D2 Inf (FR12): 9 and 6 and 7
  D2 Inf (FR24): 5 and 6 and 7
  D2 Inf (FR48): 3 and 2
  D2 Inf (FR96): 1
  D2 Latency (FR1): 0.458 and 1.3 and 0.3
  D2 Latency (FR3): 0.25 and 0.473 and 0.4
  D2 Latency (FR6): 3.2 and 1.4 and 0.647
  D2 Latency (FR12): 0.127 and 0.277 and 0.753
  D2 Latency (FR24): 3.0 and 1.6
  D2 Latency (FR48): 0.218 and 0.3 and 0.9
  D2 Latency (FR96): 0.5 and 0.28 and 1.1
  D3 AH (FR1): 8 and 11 and 13
  D3 IH (FR1): 3 and 5 and 0
  D3 Inf (FR1): 6 and 7 and 9
  D3 Latency (FR1): 0.6 and 2.1 and 0.053
  D4 AH (FR1): 10 and 12 and 11
  D4 IH (FR1): 0 and 4 and 2
  D4 Inf (FR1): 7 and 9
  D4 Latency (FR1): 0.13 and 0.6 and 0.632
  last AH (FR1): 7 and 8 and 14
  last IH (FR1): 3 and 2 and 4
  last Inf (FR1): 6
  last Latency (FR1): 0.34 and 0.452 and 0.9
  last-1 AH (FR1): 10 and 12 and 11
  last-1 IH (FR1): 0 and 4 and 2
  last-1 Inf (FR1): 7 and 9
  last-1 Latency (FR1): 0.13 and 0.6 and 0.632
  last-2 AH (FR1): 8 and 11 and 13
  last-2 IH (FR1): 3 and 5 and 0
  last-2 Inf (FR1): 6 and 7 and 9
  last-2 Latency (FR1): 0.6 and 2.1 and 0.053
  last-3 AH (FR1): 5 and 7 and 12
  last-3 IH (FR1): 8 and 6 and 2
  last-3 Inf (FR1): 5 and 6 and 9
  last-3 Latency (FR1): 0.458 and 1.3 and 0.3
Morphine 500 μg/kg/i.v. infusion
  Pmax (price at which intake switches from inelastic to elastic): 50.1
morphine, individual rats
  AVG AH (FR3): 43.5 and 29.0 and 31.0 and 18.0 and 18.5 and 24.0
  AVG AH (FR6): 43.5 and 53.5 and 45.5 and 38.5 and 31.0 and 21.0
  AVG AH (FR12): 62.0 and 88.0 and 64.5 and 104.0 and 39.0 and 41.5
  AVG AH (FR24): 164.5 and 149.5 and 79.5 and 187.0 and 122.5 and 61.0
  AVG AH (FR48): 232.5 and 252.5 and 73.5 and 255.0 and 135.0 and 63.0
  AVG AH (FR96): 203.5 and 351.0 and 57.0 and 198.0 and 210.5 and 36.0
  AVG IH (FR1_D1 to D4): 10.3 and 8.8 and 13.3 and 5.3 and 14.8 and 7.0
  AVG IH (FR1_Last 2 FR1 days): 3.5 and 3.0 and 5.5 and 5.0 and 6.5 and 9.0
  AVG IH (FR1_Last 4 FR1 days): 10.8 and 3.5 and 9.5 and 4.8 and 11.0 and 7.5
  AVG IH (FR3): 10.0 and 7.5 and 8.5 and 8.0 and 15.0 and 9.0
  AVG IH (FR6): 6.5 and 7.0 and 9.0 and 7.5 and 13.5 and 11.0
  AVG IH (FR12): 11.0 and 9.5 and 19.0 and 5.0 and 6.0 and 4.0
  AVG IH (FR24): 11.0 and 10.0 and 15.0 and 7.5 and 8.5
  AVG IH (FR48): 8.5 and 13.5 and 12.0 and 18.0 and 9.5 and 13.0
  AVG IH (FR96): 8.5 and 18.5 and 13.5 and 14.5 and 26.0
  AVG Inf (FR1_D1 to D4): 10.8 and 9.3 and 8.0 and 12.0 and 9.5 and 10.0
  AVG Inf (FR1_Last 2 FR1 days): 14.0 and 10.0 and 11.0 and 9.0 and 7.5
  AVG Inf (FR1_Last 4 FR1 days): 12.0 and 10.0 and 9.0 and 13.3 and 9.5 and 9.3
  AVG Inf (FR3): 10.5 and 8.5 and 9.5 and 5.0 and 4.5
  AVG Inf (FR6): 7.0 and 7.5 and 6.0 and 4.0 and 3.0
  AVG Inf (FR12): 5.0 and 6.0 and 4.5 and 8.0 and 3.0
  AVG Inf (FR24): 6.0 and 5.5 and 3.0 and 7.5 and 4.0 and 2.0
  AVG Inf (FR48): 4.5 and 5.0 and 1.0 and 2.0
  AVG Inf (FR96): 1.5 and 3.0 and 0.0
  AVG Latency (FR1_D1 to D4): 2.4 and 4.0 and 9.8 and 1.3 and 2.0 and 1.1
  AVG Latency (FR1_Last 2 FR1 days): 0.271 and 0.4 and 3.0 and 0.18 and 0.74 and 1.1
  AVG Latency (FR1_Last 4 FR1 days): 0.3 and 0.277 and 3.8 and 0.6 and 1.1
